# Columns and labels:
# Assay type in all cases: cell-based, human
# [1] = tested on: prognostic liver signature (PLS); assay: cPLS model: reversal of the prognostic liver signature in HCV-infected Huh7.5.1dif cells; conditions: Huh7.5.1dif cells infected with HCV Jc1 for 7 days, treated 3 additional days; GSEA
# intracellular cAMP = assay: Intracellular cAMP level by ELISA in HCV-infected Huh7.5.1dif cells; conditions: increase following induction of the poor-prognosis PLS (HCV Jc1 5 days), nizatidine 3 more days
# Method: ELISA Assay. To assess the HCV infection and nizatidine treatment on intracellular cAMP level, Huh7.5.1^dif cells were infected with HCV Jc1 for 5 days and were incubated for 3 more days with nizatidine or DMSO as a control. The cAMP level was measured by ELISA assay using the cAMP Parameter Assay Kit (R&D System) according to manufacturer's instructions.
# liver macrophages = assay: scRNA-Seq of CD45+ leucocytes from patient liver tissue treated with nizatidine
# Method: Single-Cell RNA-Seq Analyses of Patient Liver Tissues. Human cells were dissociated from HCC patient liver tissues. Fresh or cryopreserved tissues were minced into 2 to 3 mm pieces and incubated with collagenase (0.5 mg/mL) for 30 minutes at 37° C. Digested tissues were filtered through a sterile nylon mesh to separate the dispersed cells from tissue fragments and washed with Hanks' Balanced Salt Solution (HBSS). Cells were then centrifuged at 600×g for 5 minutes at 4° C. Leucocytes CD45^+ cells were separated from other cell types by flow cytometry using SH800 cell sorter (Sony). Briefly, 500,000 cells per condition were stained with human CD45 specific antibody. Living cells were selected using Zombie green staining according to manufacturer's instructions. Data were acquired using the Sony Cell Sorter Software. Cells were then cultured in MammoCultTM medium and treated with nizatidine 50 μM or DMSO vehicle control. Two days after treatment, single cells were sorted into 384 well cell capture plates (Single Cell Discovery, website: www.scdiscoveries.com) using SH800 cell sorter (Sony). The plates contain mineral oil and droplets of poly-A primers, containing a cell-specific barcode and a unique molecular identifier (UMI), enabling to distinguish the well-specific (and cell-specific) mRNA molecules. scRNA-Seq was performed by Single-Cell Discoveries B.V. using SORT-seq protocol (Muraro et al., Pancreas Cell Syst., 2016, 3: 385-394, e3). Single Cell RNA-Seq Profiling of Human Cells. scRNA-Seq analysis of patient-derived liver tissue was assessed using R version 3.5.3 with package “[…]” for clusterization, cluster analysis and DEG calculation, as previously described (Aizarani et al., Nature; 2019, 572: 199-204).
# [2] = tested on: M1-polarized THP-1 macrophages; assay: Cytokine expression by qRT-PCR in M1-polarized THP-1 macrophages
# Method: Real-Time qRT-PCR. cDNAs were synthetized by reverse transcription using SuperScript III First-Strand Synthesis SuperMix (Life Technologies). Expression of mouse IL6, TNFα and IL1β was analyzed by quantitative real-time PCR using TaqMan Gene Expression Assays (Thermo Fisher Scientific) on the CFX96 Touch Real-Time PCR Detection System PCR system (Bio-Rad). Expression of human CCL2 and TGF was analyzed using iTaq™ Universal SYBR® Green Supermix (Bio-Rad). The 2^−ΔCT method was used for relative quantification (Schmittgen and Livak, Nature Protoc., 2008, 3: 1101-1108) of mRNA with normalization to 18S. The 2^−ΔCT method was used for relative quantification (Schmittgen and Livak, Nature Protoc., 2008, 3: 1101-1108) of mRNA with normalization to GAPDH mRNA.
# M1 Macrophage Polarization and HRH2 Blocker Treatment. THP1 cells were cultured in RPMI 1640 Medium with GlutaMAX™-I supplement and HEPES and supplemented with 10% FBS and gentamycin (0.05 mg/mL). M1 macrophage polarization from THP-1 was performed as previously described (Yeung et al., J. Hepatol., 2015, 62: 607-616). To generate MO THP-1 macrophages, THP1 cells were treated with PMA 320 nM for 24 hours. To generate M1-polarized THP-1 macrophages, THP-1 cells were treated with […] then with 100 ng/ml LPS and 20 ng/ml IFNγ for 18 hours. […]
# [3] = tested on: patient-derived HCC tumor spheroids; assay: Cell viability (ATP, CellTiter-Glo) of patient-derived HCC tumorspheroids; conditions: nizatidine 50 μM, 4 days, ATP levels, compared to DMSO; 6 patients
# Method: Patient-Derived HCC Tumor Spheroids. Tumorspheroids were generated from liver tissues from HCC patients undergoing surgical resection and dissociated using the Human Tumor Dissociation Kit. Total cell populations including epithelical (i.e., cancer cells/hepatocytes) and NPCs were used to generate multicellular tumorspheroids in Corning® 96-well Black/Clear Bottom Low Flange Ultra-Low Attachment Microplates (Corning). After 48 hours, HCC-derived spheroids were treated with nizatidine 50 μM, sorafenib 10 μM or DMSO vehicle control for 4 days. Fresh medium containing DMSO or drugs was added every day. Cell viability was assessed using CellTiter-Glo® (Luminescent Cell Viability Assay), according to manufacturer's instruction.
# [4] = GSEA, nizatidine-treated vs CTRL macrophages
# [5] = gene-level analysis in macrophages
# [6] = nizatidine 50 μM, two days, scRNA-Seq
# [7] = activated THP1-derived macrophages
smiles,measurement,setting,value
"CNC(=C[N+](=O)[O-])NCCSCc1csc(CN(C)C)n1 [Nizatidine, N-[2-[[[2-[(dimethylamino)methyl]-4-thizaolyl]methyl]thio]ethyl]-N′-methyl-2-nitro-1,1-ethene-diamine]",reversal of the poor prognosis status of the prognostic liver signature (PLS),[1],PLS-reversing compounds with highest statistical significance
same,intracellular cAMP level,intracellular cAMP,reverted
same,IFNγ response and antigen processing and presentation,liver macrophages; [4],augmenting IFNγ response and antigen processing and presentation
same,c-Myc pathway expression,liver macrophages; [4],strong suppression of the c-Myc pathway expression
same,immunoregulatory macrophage (M2) signature,liver macrophages; [4],only partially induces the immunoregulatory macrophage (M2) signature
same,"pro-inflammatory and pro-fibrogenic responses (TNFα, IL2 and IL6 signaling pathways)",liver macrophages; [4],suppresses pro-inflammatory and pro-fibrogenic responses
same,pro-inflammatory macrophage (M1) signature,liver macrophages; [4],suppresses the pro-inflammatory macrophage (M1) signature
same,major histocompatibility complex (MHC) molecules expression,liver macrophages; [5],increase in major histocompatibility complex (MHC) molecules expression
same,"neutrophil/monocyte chemoattractant and pro-inflammatory cytokine expression (CXCL5, CCL2, CCL5)",liver macrophages; [5],decrease in neutrophil/monocyte chemoattractant and pro-inflammatory cytokine expression
same,"pro-fibrotic/tumorigenic soluble factor expression (IL6, IL1b, PDGF, MMP9, TNFα)",liver macrophages; [5],suppression of pro-fibrotic/tumorigenic soluble factor expression
same,Siglec-10 expression in macrophages,liver macrophages; [6],decreases expression
same,macrophage CLEC5A expression,liver macrophages; [6],decreased macrophage CLEC5A expression
same,pro-inflammatory cytokine expression,"[2]; THP1-derived M1-polarized macrophages, nizatidine 48 hours",direct effect
same,IL6 expression,[2]; [7],decreased
same,TNFα expression,[2]; [7],decreased
same,tumor spheroid viability,[3],significant decrease of tumor spheroid viability in 4 out of 6 patients

# Source: patent US20230349922A1, “H2 Blockers Targeting Liver Macrophages for the Prevention and Treatment of Liver Disease and Cancer” (Université de Strasbourg, priority 2020, published 2023)
